Source: patent US11299512B2 (priority 2016, dated 2022)
Where two headings read alike, the source gives them in different places.

Test system: THP1 luciferase reporter cells
Experiment: cells
Assay type: cell-based
[1] = Homo sapiens, THP-1, 16 h, read-out: THP1-ISG-Luc with PFO, EC50
[2] = Homo sapiens, THP-1, 16 h, read-out: THP-ISG-Luc without PFO, EC50
[3] = 16 hours, read-out: THP1-ISG-Luc with PFO, EC50
[4] = 16 hours, read-out: THP-ISG-Luc without PFO, EC50

Molecule	EC50 [1]	EC50 [2]	also measured
BP1(=O)OC[C@H]2O[C@@H](n3cnc4c(=O)[nH]c(N)nc43)C(OP(=O)(O)OC[C@H]3O[C@@H](n4cnc5c(N)ncnc54)C(O)C3O1)C2O (stereo in doubt) [EA10]	< 100 nM	< 30000 nM	–
BP1(=O)OC[C@H]2O[C@@H](n3cnc4c(=O)[nH]c(N)nc43)[C@@H](OP(B)(=O)OC[C@H]3O[C@@H](n4cnc5c(N)ncnc54)[C@@H](O)C3O1)C2O (stereo in doubt) [EA11]	< 100 nM	< 30000 nM	–
Nc1nc2c(ccn2[C@@H]2O[C@@H]3COP(=O)(O)OC4C(O)[C@H](n5cnc6c(N)ncnc65)O[C@@H]4COP(=O)(S)OC2C3O)c(=O)[nH]1 (stereo in doubt) [EB3]	< 100 nM	< 30000 nM	–
Nc1nc2c(ccn2[C@@H]2O[C@@H]3COP(=O)(O)OC4C(O)[C@H](n5cnc6c(NCCO)ncnc65)O[C@@H]4COP(=O)(S)OC2C3O)c(=O)[nH]1 (stereo in doubt) [EB5]	100 to 1000 nM	> 100000 nM	–
Nc1nc2c(ncn2[C@@H]2O[C@@H]3COP(=O)(O)OC4C(O)[C@H](n5ccc6c(N)ncnc65)O[C@@H]4COP(=O)(O)OC2C3OCC(F)(F)F)c(=O)[nH]1 (stereo in doubt) [EC3]	100 to 1000 nM	< 30000 nM	–
COC1C2OP(=O)(O)OC[C@H]3O[C@@H](n4cnc5c(=O)[nH]c(N)nc54)C(OP(=O)(O)OC[C@H]2O[C@H]1n1cnc2c(N)ncnc21)C3OCC(F)(F)F (stereo in doubt) [EC10]	> 1000 nM	> 100000 nM	–
Nc1nc2c(ncn2[C@@H]2O[C@@H]3COP(=O)(O)OC4C(O)[C@H](n5cnc6c(N)ncnc65)O[C@@H]4COP(=O)(O)OC2C3CCO)c(=O)[nH]1 (stereo in doubt) [EC12]	< 100 nM	< 30000 nM	–
Nc1nc2c(ncn2[C@@H]2O[C@@H]3COP(=O)(O)OC4C(O)[C@@H](COP(=O)(O)OC2C3OCC(F)(F)F)O[C@H]4n2cnc3c(N)ncnc32)c(=O)[nH]1 (stereo in doubt) [EC13]	100 to 1000 nM	< 30000 nM	–
Nc1nc2c(ncn2[C@@H]2O[C@@H]3COP(=O)(O)OC4C[C@H](n5ccc6ccccc65)O[C@@H]4COP(=O)(O)OC2C3OCC(F)(F)F)c(=O)[nH]1 (stereo in doubt) [EC16]	> 1000 nM	> 100000 nM	–
Nc1nc2c(ncn2[C@@H]2O[C@@H]3COP(=O)(O)OC4C[C@H](c5cccc6ccccc56)O[C@@H]4COP(=O)(O)OC2C3OCC(F)(F)F)c(=O)[nH]1 (stereo in doubt) [EC19]	> 1000 nM	> 100000 nM	–
Nc1nc2c(ncn2[C@@H]2O[C@@H]3COP(=O)(O)OC4C(O)[C@H](n5cnc6c(N)ncnc65)O[C@@H]4CNc4c(c(=O)c4=O)NC2C3O)c(=O)[nH]1 (stereo in doubt) [EC22]	> 1000 nM	> 100000 nM	–
CCCC1C2OP(=O)(O)OC[C@H]3O[C@@H](n4cnc5c(N)ncnc54)C(O)C3OP(=O)(O)OC[C@H]1O[C@H]2n1cnc2c(=O)[nH]c(N)nc21 (stereo in doubt) [EC24]	< 100 nM	< 30000 nM	–
Nc1nc2c(ncn2[C@@H]2O[C@@H]3COP(=O)(O)OC4C(O)[C@H](n5cnc6c5ncn5ccnc65)O[C@@H]4COP(=O)(O)OC2C3OCC(F)(F)F)c(=O)[nH]1 (stereo in doubt) [EC26]	100 to 1000 nM	> 100000 nM	–
Nc1nc2c(ncn2[C@@H]2O[C@@H]3COP(=O)(O)OC4C(O)[C@H](n5cnc6c(N)ncnc65)O[C@@H]4COP(=O)(O)OC2C3O)c(=O)[nH]1 (stereo in doubt) [Example E1]	< 100 nM	< 30000 nM	–
COC1C2OP(=O)(O)OC[C@H]3O[C@@H](n4cnc5c(N)ncnc54)C(O)C3OP(=O)(O)OC[C@H]1O[C@H]2n1cnc2c(=O)[nH]c(N)nc21 (stereo in doubt) [Example E3]	< 100 nM	< 30000 nM	–
C#CCOc1nc(N)nc2c1ncn2[C@@H]1O[C@@H]2COP(=O)(O)OC3C(O)[C@H](n4cnc5c(N)ncnc54)O[C@@H]3COP(=O)(O)OC1C2O (stereo in doubt) [Example E4]	< 100 nM	< 30000 nM	–
Nc1nc2c(ncn2[C@@H]2O[C@@H]3COP(=O)(O)OC4C(O)[C@H](n5ccc6c(N)ncnc65)O[C@@H]4COP(=O)(O)OC2C3O)c(=O)[nH]1 (stereo in doubt) [Example E5]	> 1000 nM	> 100000 nM	–
C#CCOC1[C@H]2OP(=O)(O)OC[C@H]3O[C@@H](n4cnc5c(=O)[nH]c(N)nc54)[C@@H](OP(=O)(O)OC[C@H]2O[C@H]1n1cnc2c(N)ncnc21)C3O (stereo partly drawn) [EA3]	> 1000 nM	> 100000 nM	–
Nc1ncnc2c1ccn2[C@@H]1O[C@@H]2COP(=O)(S)OC3C(O)[C@@H](COP(=O)(O)OC2C1O)O[C@H]3n1ccc2c(N)ncnc21 (stereo partly drawn) [EC6]	> 1000 nM	> 100000 nM	–
Nc1ncnc2c1ccn2[C@@H]1O[C@@H]2COP(=O)(S)OC3C(O)[C@@H](COP(=O)(O)OC2C1O)O[C@H]3n1ccc2c(N)ncnc21 (stereo partly drawn) [EC7]	–	–	EC50 [3]: > 1000 nM; EC50 [4]: > 100000 nM
Nc1nc2c(ncn2[C@@H]2O[C@@H]3COP(=O)(S)OC4C(O)[C@H](n5nnc6c(N)ncnc65)O[C@@H]4COP(=O)(S)OC2C3O)c(=O)[nH]1 (stereo partly drawn) [Example E19]	> 1000 nM	> 100000 nM	–
Nc1nc2c(ccn2[C@@H]2O[C@@H]3COP(=O)(S)OC4[C@@H](COP(=O)(S)O[C@H]2C3O)O[C@@H](n2ccc3c(N)ncnc32)[C@H]4O)c(=O)[nH]1 (stereo partly drawn) [Example E23]	< 100 nM	< 30000 nM	–
Nc1nc2c(ncn2[C@@H]2O[C@@H]3COP(=O)(O)O[C@@H]4C(O)[C@H](n5cnc6c(N)ncnc65)O[C@@H]4COP(=O)(N4CCOCC4)OC2[C@H]3O)c(=O)[nH]1 (stereo partly drawn) [Example E24]	–	–	EC50 (Homo sapiens, THP-1, 16 hours, read-out: THP1-ISG-Luc with PFO, EC50): 100 to 1000 nM; EC50 (Homo sapiens, THP-1, 16 hours, read-out: THP-ISG-Luc without PFO, EC50): < 30000 nM
EC23	–	–	EC50 [3]: > 1000 nM; EC50 [4]: > 100000 nM
